# Reference: patent US6462038B1, “Androgen receptor modulator compounds and methods” (Ligand Pharmaceuticals, Inc., priority 1999, dated 2002)
# System: immature castrated male rat
# Experiment: immature castrated male rat model: ventral prostate, seminal vesicle and levator ani growth
# Assay type: in vivo
# Conditions: oral; for LA (wet wt) / LA eff (% intact) / SV (wet wt) / SV eff (% intact) / VP (wet wt) / VP eff (% of intact): Table 4, castrated immature rats, once daily, 3 days
# From the text: The activity of selected compounds of the present invention as AR agonists was investigated in an immature castrated male rat model, a recognized test of the androgen of a given compound, as described in L. G. Hershberger et al., “Myotrophic Activity of 19-Nortestosterone and Other Steroids Determined by Modified Levator Ani Muscle Method” 83 Proc. Soc. Exptl.
# The basis of this assay is the fact that the male sexual accessory organs, such as the prostate and seminal vesicles, play an important role in reproductive function. […] F. Labrie et al. 16 Clin. Invest. […] However, this is not a major pathway, since in both animals and humans, castration leads to almost complete involution of the prostate and seminal vesicles without concomitant adrenalectomy. […] Since the male sex organs are the tissues most responsive to modulation of androgen activity, this model is used to determine the androgen-dependent growth of the sex accessory organs in immature castrated rats. […] Male immature rats ([…], 21-day-old, Sprague-Dawley, Harlan) were castrated under metofane anesthesia. Immediately after surgery, animals groups were dosed for 3 days as follows:
# At the end of the 3-day treatment, the animals were sacrificed, and the ventral prostates (VP), seminal vesicles (SV), and levator ani (LA) were collected and weighed. The sexual organ weights were first standardized as mg per 100 g of body weight, and the increase in organ weight induced by the compounds of the present invention was compared to the castrate control animals. […] Super-anova (one factor) was used for statistical analysis.
# The gain and loss of sexual organ weights reflect the changes of cell number (DNA content) and cell mass (protein content), depending upon the serum androgen concentration. […] Therefore, measurement of organ wet weights is sufficient to indicate the bioactivity of androgens and androgen antagonists.
structure (smiles),measurement,setting,value
"O=c1cc(C(F)(F)F)c2cc3c(cc2[nH]1)OCCN3CC(F)(F)F [Compound 105, 1,2,3,6-Tetrahydro-1-(2,2,2-trifluoroethyl)-9-(trifluoromethyl)-7H-[1,4]oxazino[3,2-g]quinolin-7-one]",LA (wet wt),3 mg/kg,33.0 ± 2.4 mg/100 g body weight
same,LA eff (% intact),3 mg/kg,306 ± 140%
same,SV (wet wt),3 mg/kg,8.5 ± 0.7 mg/100 g body weight
same,SV eff (% intact),3 mg/kg,15 ± 13%
same,VP (wet wt),3 mg/kg,26.9 ± 1.1 mg/100 g body weight
same,VP eff (% of intact),3 mg/kg,12 ± 5%
same,LA (wet wt),10 mg/kg,36.3 ± 1.3 mg/100 g body weight
same,LA eff (% intact),10 mg/kg,498 ± 73%
same,SV (wet wt),10 mg/kg,9.9 ± 0.4 mg/100 g body weight
same,SV eff (% intact),10 mg/kg,42 ± 8.2%
same,VP (wet wt),10 mg/kg,35.9 ± 2.7 mg/100 g body weight
same,VP eff (% of intact),10 mg/kg,52 ± 12%
same,LA (wet wt),30 mg/kg,35.8 ± 1.2 mg/100 g body weight
same,LA eff (% intact),30 mg/kg,469 ± 71%
same,SV (wet wt),30 mg/kg,11.7 ± 1.4 mg/100 g body weight
same,SV eff (% intact),30 mg/kg,78 ± 26%
same,VP (wet wt),30 mg/kg,30.1 ± 2.1 mg/100 g body weight
same,VP eff (% of intact),30 mg/kg,26 ± 9%
same,LA (wet wt),100 mg/kg,39.7 ± 0.6 mg/100 g body weight
same,LA eff (% intact),100 mg/kg,696 ± 36%
same,SV (wet wt),100 mg/kg,14.4 ± 1.0 mg/100 g body weight
same,SV eff (% intact),100 mg/kg,131 ± 19%
same,VP (wet wt),100 mg/kg,42.1 ± 1.6 mg/100 g body weight
same,VP eff (% of intact),100 mg/kg,80 ± 7%
same,"AR agonist activity: weights of the VP, SV and LA","immature castrated rat, statement in words",exhibited AR agonist activity
